Results as given in publication PMC2824672, “Identification of inhibitors of Plasmodium falciparum phosphoethanolamine methyltransferase using an enzyme-coupled transmethylation assay” (2010).

Experiments:
[1] = target: T1, phosphoethanolamine methyltransferase, PfPMT (Plasmodium falciparum, UniProt Q8IDQ9); assay: 1H-15N HSQC NMR titration; also inhibition of purified enzyme in coupled assay; assay type: binding
T1 construct: gene PMT; recombinant 6His-tagged PfPMT (266 residues), 15N-labeled for NMR

[2] = target: T2, phosphoethanolamine methyltransferase, PfPMT (Plasmodium falciparum, UniProt Q8IDQ9); assay: 1H-15N HSQC NMR titration (weak; no enzyme inhibition at […]); assay type: binding; design: gene PMT; recombinant 6His-tagged PfPMT, 15N-labeled for NMR
T2 sequence (Q8IDQ9 1-266): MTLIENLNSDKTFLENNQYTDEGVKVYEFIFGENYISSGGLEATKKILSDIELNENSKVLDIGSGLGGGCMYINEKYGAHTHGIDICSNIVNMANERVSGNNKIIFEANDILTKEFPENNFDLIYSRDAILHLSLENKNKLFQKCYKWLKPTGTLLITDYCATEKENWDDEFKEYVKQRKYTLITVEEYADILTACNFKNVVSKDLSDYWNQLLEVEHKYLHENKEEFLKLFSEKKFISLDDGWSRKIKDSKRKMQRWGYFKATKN

[3] = target: T2, phosphoethanolamine methyltransferase, PfPMT; assay: enzyme-coupled spectrophotometric methyltransferase assay; assay type: biochemical; design: gene PMT; recombinant purified PfPMT (pET-15b)
[4] = target: T2, phosphoethanolamine methyltransferase, PfPMT; assay: enzyme-coupled assay, substrate turnover by purified enzyme; assay type: biochemical; design: gene PMT; recombinant purified PfPMT (pET-15b)
[5] = target: T2, phosphoethanolamine methyltransferase, PfPMT; assay: enzyme-coupled assay, co-substrate turnover by purified enzyme; assay type: biochemical; design: gene PMT; recombinant purified PfPMT (pET-15b)

## CCN(CC)Cc1cc(Nc2ccnc3cc(Cl)ccc23)ccc1O [AQ, amodiaquine]
[1]
  inhibition at 5 µM: 60%

## CCN(CC)CCCC(C)Nc1ccnc2cc(Cl)ccc12 (stereo not shown) [CQ, chloroquine]
[2]
  1H-15N HSQC NMR titration (weak; no enzyme inhibition at 200 μM): indicating site-specific binding, the affinity of CQ for PfPMT is much lower than that of AQ

## CCCCCCCCCCCC[N+](C)(C)C [DDTA, Dodecyltrimethylammonium bromide]
[3]
  inhibition at 500 µM: 25%

## CCCCCCCCCCCCCCCC[N+](C)(C)C [HDTA, Hexadecyltrimethylammonium bromide]
[3]
  inhibition at 100 µM: ~50%

## CCCCCCCCCCCCCCCCOP(=O)([O-])OCC[N+](C)(C)C [HePC, Miltefosine]
[3]
  inhibition at 100 µM: ~60%

## NCCOP(=O)(O)O [P-EA, phosphoethanolamine]
[4]
  enzyme-coupled assay, substrate turnover by purified enzyme: PfPMT activity increased proportionally to the concentration of these substrates

## C[S+](CC[C@H](N)C(=O)[O-])C[C@H]1O[C@@H](n2cnc3c(N)ncnc32)[C@H](O)[C@@H]1O (stereo partly shown) [SAM, S-adenosylmethionine]
[5]
  enzyme-coupled assay, co-substrate turnover by purified enzyme: The effect of increasing concentrations of the substrate P-EA and co-substrate SAM on PfPMT activity was also measured.
